Reference: patent US12091423B2, “Substituted 3,4,12,12a-tetrahydro-1H-[1,4]oxazino[3,4-c]pyrido[2,1-f][1,2,4]triazine-6,8-dione, pharmaceutical composition, method for the production and use thereof” (VIRIOM, INC., priority 2019, dated 2024)

System: influenza A/California/2009 (H1N1)
Test: microbe, parasite or virus in culture
Assay type: cell-based
Details: H1N1, MDCK

In the case of O=C1c2c(O)c(=O)ccn2N([C@@H]2c3ccc(F)c(F)c3CSc3ccsc32)[C@@H]2COCCN12 [1.3.2, (12aR)-7-hydroxy-12-[(10R)-6,7-difluoro-5,10-dihydrothieno[3,2-c][2]benzothiepin-10-yl]-3,4,12,12a-tetrahydro-1H-[1,4]oxazino[3,4-c]pyrido[2,1-f][1,2,4]triazine-6,8-dione], the EC50 is reported as less than 0.3 nM.

In the case of O=C1c2c(O)c(=O)ccn2N([C@H](c2ccccc2)c2ccc(F)c(F)c2)[C@@H]2COCCN12 [1.8.2, (12aR)-7-hydroxy-12-[(R)-(3,4-difluorophenyl)(phenyl)methyl]-3,4,12,12a-tetrahydro-1H-[1,4]oxazino[3,4-c]pyrido[2,1-f][1,2,4]triazine-6,8-dione], the EC50 is reported as 2 to 4 nM.

Work on O=C1c2c(O)c(=O)ccn2N([C@@H](c2ccccc2)c2ccc(F)c(F)c2)[C@@H]2COCCN12 [1.9.2, (12aR)-7-hydroxy-12-[(S)-(3,4-difluorophenyl)(phenyl)methyl]-3,4,12,12a-tetrahydro-1H-[1,4]oxazino[3,4-c]pyrido[2,1-f][1,2,4]triazine-6,8-dione] yielded an EC50 of 2 to 4 nM.

With O=C1c2c(O)c(=O)ccn2N(C(c2ccccc2)c2ccccc2)[C@@H]2COCCN12 [1.13.2, (12aR)-7-hydroxy-12-diphenylmethyl-3,4,12,12a-tetrahydro-1H-[1,4]oxazino[3,4-c]pyrido[2,1-f][1,2,4]triazine-6,8-dione] the EC50 was 2 to 4 nM.

With O=C1c2c(O)c(=O)ccn2N(C(c2ccc(F)cc2)c2ccc(F)cc2)[C@@H]2COCCN12 [1.14.2, (12aR)-7-hydroxy-12-[bis(4-fluorophenyl)methyl]-3,4,12,12a-tetrahydro-1H-[1,4]oxazino[3,4-c]pyrido[2,1-f][1,2,4]triazine-6,8-dione] the EC50 was 2 to 4 nM.
